Converted amounts (≈) assume the structure as drawn.
What was measured:
Bacillus subtilis = test: Bacterial Cytological Profiling (BCP); type: cell-based; settings: two hours, LB-MSM osmotically buffered media, 37 °C
Procedure: B. subtilis cells were grown in Luria Bertani (LB) medium at 37 °C until the optical density at 600 nm (OD600) was ~0.20. Cells were then left untreated or treated with compound 1 or control antibiotics in the presence of methylsulfonylmethane (MSM), as described previously. After two hours, cells were stained with FM 4−64 (1 μg/mL) to visualize cell membranes; DAPI (1 μg/ml) to visualize DNA, and SYTOX Green (1 μg/mL), a vital stain which is normally excluded from cells with an intact membrane but brightly stains cells that are lysed. Images were collected using a Delta Vision Spectris Deconvolution microscope, as described previously.

[1] = system: S. aureus ATCC 6538 biofilm; test: biofilm mass disruption, crystal violet reporter assay; type: cell-based, Staphylococcus aureus; settings: all concentrations tested
Procedure: (§1) Compounds 1, 2, and vancomycin were examined for their ability to eradicate mature staphylococcal biofilm using the microtiter dish biofilm formation assay. S. epidermidis NRS101 and S. aureus ATCC 6538 were selected as the test organisms given their ability to form strong adherent biofilm. An overnight culture of bacteria was diluted (1:100 in TSB + 1% glucose) and transferred to a 96-well plate. The plate was incubated for 24 hours at 37 °C in order to form adherent biofilm on the surface of the plate wells. The medium containing the bacterial suspension was removed and the biofilm was washed with sterile PBS to remove planktonic cells. Compounds 1, 2, or vancomycin (from 128 to 1 μg/mL), in triplicate, in TSB were incubated with the biofilm for 24 hours at 37 °C.
(§2) Compounds were subsequently removed. The biofilm was washed with PBS and then stained with 1% (w/v) crystal violet for 40 minutes. The stain was removed and wells were washed with sterile PBS. Wells were next decolorized using 95% ethanol. The optical density of each well at 595 nm was measured using a microplate reader.

VRS10 [2] = test: microbe, parasite or virus in culture; type: cell-based, Staphylococcus aureus; settings: Staphylococcus aureus, read-out: MIC of vancomycin
Procedure: (§3) CAMHB was inoculated with strain VRS4 or strain VRS10 (5×10^5 CFU/mL), as described previously, with the following modifications. Aliquots ([…]) of the bacterial suspension were divided into micro-centrifuge tubes and compounds 1 or 2 (at ½ × MIC) were introduced into each tube. After 30 minutes of incubation at room temperature, samples from each tube were transferred to a new micro-centrifuge tube, prior to addition of vancomycin (at 128 μg/mL). Plates containing the test agents and bacteria were then incubated at 37 °C for 20–22 hours after which the MIC value was determined. A fold-reduction was calculated by comparing the MIC of vancomycin compared to the MIC of vancomycin given in combination with compounds 1 or 2 (at ½ × MIC).

VRS4 [3] = test: microbe, parasite or virus in culture; type: cell-based, Staphylococcus aureus; settings: Staphylococcus aureus, read-out: MIC of vancomycin
Procedure: as §3

[4] = system: S. aureus ATCC 6538 biofilm; test: bacterial CFU inside mature biofilm post-treatment; type: cell-based, Staphylococcus aureus; settings: 64 μg/mL, 24 hours
Procedure: as §1
(§4) For enumeration of viable CFU inside the biofilm, compounds were removed, wells were washed with sterile PBS, and treated with 0.25% Trypsin-2.21 mM EDTA solution as described elsewhere. The solution containing cells was transferred to a 96-well plate, serially diluted in PBS, and plated on TSA. Plates were incubated at 37 °C for 19 hours before viable CFU were counted. Data are presented as average log10(CFU/mL) of bacteria present in the biofilm post-treatment.

[5] = system: S. aureus NRS107 (RN4220); test: accumulation of UDP-N-acetylmuramyl pentapeptide (HPLC-MS); type: cell-based, Staphylococcus aureus; settings: 10 × MIC, 30 minutes
Procedure: The accumulation of UDP-N-acetylmuramyl pentapeptide was detected using a procedure described in a previous study, with the following modifications. S. aureus NRS107 (RN4220), in early logarithmic growth stage (OD600 ~ 0.60), was incubated with 130 μg/mL chloramphenicol for 15 minutes at 37°C. […] Untreated samples served as a negative control. Samples were centrifuged at 10,000 rpm for five minutes, the supernatant discarded, and the pellet re-suspended in sterile deionzined water (1 mL). The pellet was boiled at […] for 30 minutes before samples were chilled on ice for 10 minutes. UDP-N-acetylmuramyl-pentapeptide was measured using an Agilent High Performance Liquid Chromatography coupled to a time-of-flight Mass Spectrometer (HPLC-MS). A Waters XBridge Phenyl (2.1 × 100 mm, 3.5 μm) chromatography column was used, with mobile phases of water, 0.1% formic acid (Buffer A) and acetonitrile, 0.1% formic acid (Buffer B). A gradient of 5–20% Buffer B over 14 minutes was used, with a flow rate of 0.3 mL/min. An electrospray source was used, in positive ionization mode. Extracted Ion Chromatograms (EIC) were generated at a mass-to-charge ratio (m/z) of 1150.3588 (20 ppm window). Mass error for UDP-N-acetylmuramyl-pentapeptide was <1 ppm.

MRSA NRS384 (USA300) = test: broth microdilution MIC/MBC; type: cell-based; settings: Staphylococcus aureus
Procedure: (§5) The broth microdilution assay was employed to determine the MIC of compounds 1, 2, and vancomycin against five MRSA strains, four VRSA strains, one highly mupirocin-resistant S. aureus strain, one biofilm-forming S. aureus (ATCC 6538) strain, and one biofilm-forming methicillin-resistant S. epidermidis strain, as per the guidelines of the Clinical and Laboratory Standards Institute (CLSI). […] The MBC was determined by plating an aliquot (5 μL) from wells with no growth onto TSA plates. Plates were incubated at 37 °C for 19 hours before recording the MBC (concentration where no growth was observed on TSA plates).

VRS11a = test: broth microdilution MIC/MBC; type: cell-based; settings: Staphylococcus aureus
Procedure: as §5

S. aureus NRS107 = test: broth microdilution MIC/MBC; type: cell-based; settings: Staphylococcus aureus, NRS107
Procedure: as §5

MRSA NRS123 (USA400) = test: broth microdilution MIC/MBC; type: cell-based; settings: Staphylococcus aureus
Procedure: as §5

VRS10 [6] = test: broth microdilution MIC/MBC; type: cell-based; settings: Staphylococcus aureus
Procedure: as §5

VRS4 [7] = test: broth microdilution MIC/MBC; type: cell-based; settings: Staphylococcus aureus
Procedure: as §5

MRSA NRS387 (USA800) = test: broth microdilution MIC/MBC; type: cell-based; settings: Staphylococcus aureus
Procedure: as §5

MRSA NRS483 (USA1000) = test: broth microdilution MIC/MBC; type: cell-based; settings: Staphylococcus aureus
Procedure: as §5

VRS7 = test: broth microdilution MIC/MBC; type: cell-based; settings: Staphylococcus aureus
Procedure: as §5

MRSA NRS484 (USA1100) = test: broth microdilution MIC/MBC; type: cell-based; settings: Staphylococcus aureus
Procedure: as §5

[8] = system: S. epidermidis NRS101 biofilm; test: biofilm mass disruption, crystal violet reporter assay; type: cell-based, Staphylococcus epidermidis; settings: 24-hour treatment
Procedure: as §1, §2

MRSA USA300 (NRS384) = test: time-kill assay; type: cell-based, Staphylococcus aureus; settings: 4 × MIC
[9] = system: clinically-relevant strains of MRSA and VRSA; test: broth microdilution MIC/MBC, panel summary; type: cell-based; settings: Staphylococcus aureus, read-out: concentration inhibiting growth of MRSA isolates (MIC)
Procedure: as §5

[10] = system: S. epidermidis NRS101 biofilm; test: bacterial CFU inside mature biofilm post-treatment; type: cell-based, Staphylococcus epidermidis; settings: 24 hours
Procedure: as §1, §4

S. epidermidis NRS101 = test: broth microdilution MIC; type: cell-based; settings: Staphylococcus epidermidis, NRS101
Procedure: as §5

S. aureus ATCC 6538 = test: broth microdilution MIC; type: cell-based; settings: Staphylococcus aureus, ATCC6538
Procedure: as §5

MRSA USA400 (NRS123) [11] = test: multi-step resistance selection; type: cell-based, Staphylococcus aureus; settings: for increase in MIC after fourteen passages: fourteen passages over two weeks; for MIC: Staphylococcus aureus, read-out: initial MIC
Procedure: To assess MRSA’s ability to develop resistance to the diphenylurea compounds after repeated exposure, a multi-step resistance selection experiment was conducted. […] Resistance was classified as a greater than four-fold increase in the initial MIC, as reported elsewhere.

MRSA USA400 (NRS123) [12] = test: MIC in presence and absence of human serum albumin; type: cell-based, Staphylococcus aureus; settings: for MIC: Staphylococcus aureus, TSB
Procedure: The broth microdilution assay presented above was used to assess if compounds 1 and 2 bind to a major component of blood (human serum albumin) thus limiting the free fraction of drug available to exert its antibacterial effect. […] CaCl2 ([…]) was added to wells containing daptomycin, per the CLSI guidelines.

[13] = 4% human serum albumin, read-out: MIC vs. MRSA USA400 (+HSA)
[14] = without human serum albumin, read-out: MIC vs. MRSA USA400 (-HSA)

## N[C@@H]1CON=C1O [D-cycloserine]
Bacillus subtilis
  cytological profile (cell morphology): bulges and misshapen cells

## ramoplanin
Bacillus subtilis
  cytological profile (cell morphology): bulges and misshapen cells

## CN[C@H](CC(C)C)C(=O)N[C@H]1C(=O)N[C@@H](CC(N)=O)C(=O)N[C@H]2C(=O)N[C@H]3C(=O)N[C@H](C(=O)N[C@H](C(=O)O)c4cc(O)cc(O)c4-c4cc3ccc4O)[C@H](O)c3ccc(c(Cl)c3)Oc3cc2cc(c3O[C@@H]2O[C@H](CO)[C@@H](O)[C@H](O)[C@H]2O[C@H]2C[C@](C)(N)[C@H](O)[C@H](C)O2)Oc2ccc(cc2Cl)[C@H]1O [Vancomycin, vancomycin, reference compound]
[1]
  change in optical density of S. aureus biofilm (biofilm mass): no change
VRS10 [2]
  MIC: 512 µg/mL
VRS4 [3]
  MIC: 512 µg/mL
[4]
  reduction in bacterial CFU within S. aureus biofilm: 1.0 log10
[5]
  UDP-N-acetylmuramyl pentapeptide accumulation: notable increase
MRSA NRS384 (USA300)
  MBC: 0.5 µg/mL (≈ 0.345 µM)
  MIC: 0.5 µg/mL (≈ 0.345 µM)
VRS11a
  MBC: > 64 µg/mL
  MIC: > 64 µg/mL
S. aureus NRS107
  MBC: 2 µg/mL (≈ 1.38 µM)
  MIC: 1 µg/mL (≈ 0.69 µM)
MRSA NRS123 (USA400)
  MBC: 1 µg/mL (≈ 0.69 µM)
  MIC: 1 µg/mL (≈ 0.69 µM)
VRS10 [6]
  MBC: > 64 µg/mL
  MIC: > 64 µg/mL
VRS4 [7]
  MBC: > 64 µg/mL
  MIC: 64 µg/mL (≈ 44.2 µM)
MRSA NRS387 (USA800)
  MBC: 1 µg/mL (≈ 0.69 µM)
  MIC: 0.5 µg/mL (≈ 0.345 µM)
MRSA NRS483 (USA1000)
  MBC: 1 µg/mL (≈ 0.69 µM)
  MIC: 1 µg/mL (≈ 0.69 µM)
VRS7
  MBC: > 64 µg/mL
  MIC: 64 µg/mL (≈ 44.2 µM)
MRSA NRS484 (USA1100)
  MBC: 2 µg/mL (≈ 1.38 µM)
  MIC: 1 µg/mL (≈ 0.69 µM)
[8]; 128 μg/mL, untreated control OD595 = 4.00
  S. epidermidis biofilm mass, OD595: 3.80
[8]; 8 to 64 μg/mL, vs untreated control
  reduction in S. epidermidis biofilm mass: no significant reduction
MRSA USA300 (NRS384)
  time to completely eradicate a high inoculum of MRSA (~10^6 CFU/mL): 24 hours
[9]
  MIC: 0.5 to 1 µg/mL (≈ 0.345 to 0.69 µM)
[10]; 64 μg/mL
  reduction in bacterial CFU within S. epidermidis biofilm: 1.4 log10
[10]; 128 μg/mL
  reduction in bacterial CFU within S. epidermidis biofilm: 3.14 log10
S. epidermidis NRS101
  MIC: 1 µg/mL (≈ 0.69 µM)
S. aureus ATCC 6538
  MIC: 0.5 µg/mL (≈ 0.345 µM)

## CC(=O)NC[C@H]1CN(c2ccc(N3CCOCC3)c(F)c2)C(=O)O1 [Linezolid, linezolid, reference compound]
MRSA USA400 (NRS123) [11]; MRSA USA400 (NRS123)
  increase in MIC after fourteen passages: one-fold
MRSA USA400 (NRS123) [11]
  MIC: 2 µg/mL (≈ 5.93 µM)
MRSA USA400 (NRS123) [12]; MRSA USA400, 4% human serum albumin vs none
  increase in MIC in the presence of HSA: remained unchanged
MRSA USA400 (NRS123) [12]; [13]
  MIC: 1 µg/mL (≈ 2.96 µM)
MRSA USA400 (NRS123) [12]; [14]
  MIC: 1 µg/mL (≈ 2.96 µM)

## CCCCCCCCCC(=O)N[C@@H](Cc1c[nH]c2ccccc12)C(=O)N[C@H](CC(N)=O)C(=O)N[C@@H](CC(=O)O)C(=O)N[C@@H]1C(=O)NCC(=O)N[C@@H](CCCN)C(=O)N[C@@H](CC(=O)O)C(=O)N[C@H](C)C(=O)N[C@@H](CC(=O)O)C(=O)NCC(=O)N[C@H](CO)C(=O)N[C@@H]([C@H](C)CC(=O)O)C(=O)N[C@@H](CC(=O)c2ccccc2N)C(=O)O[C@@H]1C [Daptomycin, daptomycin, reference compound]
MRSA USA400 (NRS123) [12]; [13]
  MIC: 64 µg/mL (≈ 39.5 µM)
MRSA USA400 (NRS123) [12]; [14]
  MIC: 2 µg/mL (≈ 1.23 µM)

## Cc1onc(-c2ccccc2)c1C(=O)N[C@@H]1C(=O)N2[C@@H]1SC(C)(C)[C@@H]2C(=O)O [oxacillin]
Bacillus subtilis
  cytological profile (cell morphology): bulges and misshapen cells

## Cc1onc(-c2ccccc2Cl)c1C(=O)N[C@@H]1C(=O)N2[C@@H]1SC(C)(C)[C@@H]2C(=O)O [cloxacillin]
Bacillus subtilis
  cytological profile (cell morphology): bulges at the poles of the cells

## O=C(O)c1cn(C2CC2)c2cc(N3CCNCC3)c(F)cc2c1=O [ciprofloxacin]
MRSA USA400 (NRS123) [11]; MRSA USA400 (NRS123)
  increase in MIC after fourteen passages: seven-fold
MRSA USA400 (NRS123) [11]; MRSA USA400 (NRS123), seven passages
  increase in MIC after seven passages: three-fold
MRSA USA400 (NRS123) [11]
  MIC: 1 µg/mL (≈ 3.02 µM)

Source: paper PMC5552351, “Bacteriological profiling of diphenylureas as a novel class of antibiotics against methicillin-resistant Staphylococcus aureus” (PLoS ONE, 2017)
